What was measured:
[1] = Pharmacokinetics of alpha-tocotrienol quinone in rats; format: in vivo, rat
Method: (§1) The particular dosage appropriate for a specific patient is determined by dose titration. […] This lack of dose-proportionality may be due to decreased absorption since there is no change in t1/2 over dose range. Alpha-tocotrienol quinone tested in rats was safe when given acutely up to 2000 mg/kg.

[2] = test system: rats; conditions: rat, in vivo
Method: as §1
The starting dose can be estimated based on the United States Food and Drug Administration guidelines titled “Estimating the Maximum Safe Starting Dose in Initial Clinical Trials for Therapeutics in Adult Healthy Volunteers” (July 2005) as well as the International Conference on Harmonisation of Technical Requirements for Registration of Pharmaceuticals for Human Use (ICH) guidelines titled “Guidance on Non-clinical Safety Studies for the Conduct of Human Clinical Trials and Marketing Authorization for Pharmaceuticals” (July 2008). Per ICH guidelines, predicted exposures from the starting dose should not exceed 1/50th the NOAEL (No-Adverse-Observed-Effect-Level) in the more sensitive species on a mg/m^2 basis. Following a single oral dose of alpha-tocotrienol quinone, the NOAEL was established to be 500 mg/kg for the female rat, i.e. 3,000 mg/m2. This dosage would be equivalent to 81 mg/kg in an adult human. 1/50th of 81 mg/kg is 1.6 mg/kg, i.e. 110 mg for a 70 kg adult, or 16 mg for a 10 kg child. This dose can be administered once, twice, or three times daily.

[3] = Pharmacokinetics of alpha-tocotrienol quinone in fasted dogs; conditions: dog, in vivo, po, 10 mg/kg
Method: as §1

[4] = Blood-brain barrier crossing in mice; format: in vivo
[5] = test system: MMA fibroblasts; experiment: MMA cell line assay: rescue of BSO-stressed fibroblasts (cell viability, Calcein AM); format: cell-based; conditions: Homo sapiens, Fibroblast; fibroblasts from MMA patient stressed with 25 μM BSO; Calcein AM readout; read-out: ED50 (protection of cell viability)
Method: Alpha-Tocotrienol quinone, its redox-silent version (the bis-Boc protected corresponding hydroquinone), and solvent controls were tested for their ability to rescue cells from MMA fibroblasts of the patient diagnosed with MMA, when the cells were stressed by addition of L-buthionine-(S,R)-sulfoximine (BSO), as described in Jauslin et al., Hum. Mol. Genet. 11(24):3055 (2002), Jauslin et al., FASEB J. 17:1972-4 (2003), and International Patent Application WO 2004/003565. EC50 concentrations of test compound and its redox-silent version were determined and compared. The following compound, 2-((6E,10E)-3-hydroxy-3,7,11,15-tetramethylhexadeca-6,10,14-trienyl)-3,5,6-trimethyl-bis(t-butyloxycarbonyl)benzene-1,4-diol, the bis-Boc protected hydroquinone form of alpha-tocotrienol quinone, was used as the “redox-silent” alpha tocotrienol quinone, or αTTQ-RS.
DMEM (Dulbecco's Modified Eagle Medium)—No Glucose, No pyruvate—GIBCO®—Catalog number 11966-025 from Invitrogen. Fetal Calf Serum was obtained from PAA Laboratories. Basic fibroblast growth factor and epidermal growth factor were purchased from PeproTech. Penicillin-streptomycin-glutamine mix, L-buthionine (S,R)-sulfoximine, and insulin from bovine pancreas were purchased from Sigma. Calcein AM was purchased from Molecular Probes. […]

Structure (SMILES): CC(C)=CCC/C(C)=C/CC/C(C)=C/CCC(C)(O)CCC1=C(C)C(=O)C(C)=C(C)C1=O (stereo not drawn) [alpha-tocotrienol quinone, Alpha-tocotrienol quinone]
- dose-proportionality of AUC ([1]; increase in doses of 2.4: 6: 10: 20 gives increase in AUCs of 1.5: 2.8: 4.0: 6.7): less than dose-proportionality
- bioavailability ([1]; rat, in vivo, 10 mg/kg): ~90%
- safe when given acutely up to [2]: up to 2000 mg/kg
- NOAEL on mg/m2 basis ([2]; po): 3,000 mg/m2
- bioavailability [3]: ~16%
- crosses the blood-brain barrier [4]: crosses the blood-brain barrier
- EC50 [5]: 23 nM

Reference: US20150057363A1, “TREATMENT OF METHYLMALONIC ACIDURIA, ISOVALERIC ACIDURIA, AND OTHER ORGANIC ACIDURIAS WITH TOCOTRIENOL QUINONES” (priority 2011, published 2015)
